Measured values reported in patent publication US5891882A, “Benzopyranopyrrole and benzopyranopyridine α-1 adenergic compounds” (priority 1997, dated 1999).
Where a name gives a salt, the structure may show the parent alone.

How the values were obtained:
[1] = molecular target: T1, α-1A adrenoreceptor (canine prostate smooth muscle) (Canis lupus, UniProt A0A8I3NK63); assay: Functional antagonism: inhibition of phenylephrine-induced contraction of canine prostate strips; format: cell-based; conditions: Schild plot
T1 construct: antagonism of phenylephrine-induced contraction (pA2, Schild)
T1 sequence (A0A8I3NK63 1-466): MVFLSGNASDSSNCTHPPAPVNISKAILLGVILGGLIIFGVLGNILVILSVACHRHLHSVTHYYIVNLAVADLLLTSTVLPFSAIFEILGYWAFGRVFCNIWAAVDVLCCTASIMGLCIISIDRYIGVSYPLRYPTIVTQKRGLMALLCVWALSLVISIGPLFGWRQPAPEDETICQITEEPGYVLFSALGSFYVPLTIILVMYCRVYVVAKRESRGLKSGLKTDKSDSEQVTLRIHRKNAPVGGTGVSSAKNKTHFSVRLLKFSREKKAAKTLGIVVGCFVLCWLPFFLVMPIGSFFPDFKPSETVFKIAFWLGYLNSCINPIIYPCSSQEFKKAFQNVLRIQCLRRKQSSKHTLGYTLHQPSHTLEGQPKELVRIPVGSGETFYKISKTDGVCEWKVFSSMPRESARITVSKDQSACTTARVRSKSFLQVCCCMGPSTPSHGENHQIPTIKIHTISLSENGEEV
Description: Canine prostate strips were used in vitro as previously described (Hieble, J. P., Boyce, Caine, M., Fed Proc., 45: 2609-2614 (1986)), to determine antagonist potencies phenylephrine-induced contractions.
(§1) Functional assays indicative of pharmacologically defined α-1 adrenoreceptors were used to further characterize compounds. Inhibition of phenylephrine (PE)-induced contraction of canine prostate smooth muscle can be correlated with α-1A adrenoreceptor activation. […] For each of these models, agonist dose response curves were repeated against increasing concentrations of test agent to derive a Schild plot [log ([…]) against log (molarity of test agent)] to determine the pA2.
Canine prostate strips were used in vitro as previously described (Hieble, J. P., Boyce, A. J. and Caine, M., Fed. Proc., 45: 2609-2614 (1986)), to determine antagonist potencies against phenylephrine-induced contractions.

[2] = molecular target: T2, α-1 Adrenoceptors (Rat Aorta) (Rattus norvegicus, UniProt P23944); assay: Functional antagonism at α-1 adrenoceptors, rat aorta; format: cell-based; conditions: read-out: In Vitro Characterization (pA2) Rat Aorta (converted)
T2 construct: Rat Aorta; from tissue; host or cells: rat aorta
T2 sequence (P23944 1-561): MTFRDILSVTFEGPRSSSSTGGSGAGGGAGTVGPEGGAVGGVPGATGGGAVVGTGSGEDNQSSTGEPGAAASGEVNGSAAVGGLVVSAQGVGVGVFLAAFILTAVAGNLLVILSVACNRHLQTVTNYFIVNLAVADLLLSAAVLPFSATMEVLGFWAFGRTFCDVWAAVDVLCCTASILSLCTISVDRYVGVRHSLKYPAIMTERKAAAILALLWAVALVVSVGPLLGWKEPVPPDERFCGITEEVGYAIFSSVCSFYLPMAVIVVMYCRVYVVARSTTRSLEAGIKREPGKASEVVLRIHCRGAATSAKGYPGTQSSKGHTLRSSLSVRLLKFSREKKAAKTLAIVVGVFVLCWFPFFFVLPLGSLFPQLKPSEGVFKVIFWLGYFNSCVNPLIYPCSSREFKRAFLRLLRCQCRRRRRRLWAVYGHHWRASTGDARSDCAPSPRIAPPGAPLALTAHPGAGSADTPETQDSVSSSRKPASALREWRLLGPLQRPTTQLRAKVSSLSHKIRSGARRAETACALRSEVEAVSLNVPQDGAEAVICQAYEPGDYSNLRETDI
Description: as §1

SMILES	In Vitro Characterization (pA2) Dog Prostate [1]	Kb [2] [nM]
COc1ccc2c(c1)OC[C@H]1CN(CCn3c(=O)[nH]c4c(sc5ccccc54)c3=O)C[C@@H]21.Cl (racemic) [Example 63, 3-[2-((±)-cis-7-Methoxy-1,2,3,3a,4,9b-hexahydro-[1]-benzopyrano[3,4-c]pyrrol-2-yl)ethyl]-[1]benzthieno[3,2-d]pyrimidine-2,4(1H,3H)-dione hydrochloride]	6.65	–
COc1ccc2c(c1)OC[C@H]1CN(CCCn3c(=O)[nH]c4c(sc5ccccc54)c3=O)C[C@@H]21.Cl (racemic) [Example 64]	6.92	–
COc1cccc2c1[C@@H]1CN(CCn3c(=O)[nH]c4c(sc5ccccc54)c3=O)C[C@@H]1CO2.Cl (racemic) [Example 65, 3-[2-((±)-cis-9-Methoxy-1,2,3,3a,4,9b-hexahydro-[1]-benzopyrano[3,4-c]pyrrol-2-yl)ethyl]-[1]-benzthieno[3,2-d]pyrimidine-2,4(1H,3H)-dione hydrochloride]	7.76	–
COc1cccc2c1[C@@H]1CN(CCCn3c(=O)[nH]c4c(sc5ccccc54)c3=O)C[C@@H]1CO2.Cl (racemic) [Example 66, 3-[3-((±)-cis-9-Methoxy-1,2,3,3a,4,9b-hexahydro-[1]-benzopyrano[3,4-c]pyrrol-2-yl)propyl]-[1]-benzthieno[3,2-d]pyrimidine-2,4(1H,3H)-dione hydrochloride]	7.48	–
COc1cccc2c1OC[C@H]1CN(CCCn3c(=O)[nH]c4c(sc5ccccc54)c3=O)C[C@@H]21.Cl (racemic) [Example 68, 3-[3-((±)-cis-6-Methoxy-1,2,3,3a,4,9b-hexahydro-[1]-benzopyrano[3,4-c]pyrrol-2-yl)propyl]-[1]-benzthieno[3,2-d]pyrimidine-2,4(1H,3H)-dione hydrochloride]	7.02	–
Cl.O=c1[nH]c2c(sc3ccccc32)c(=O)n1CCN1C[C@@H]2COc3ccccc3[C@@H]2C1 (racemic) [Example 69, 3-[2-((±)-cis-1,2,3,3a,4,9b-hexahydro-[1]-benzopyrano[3,4-c]pyrrol-2-yl)ethyl]-[1]-benzthieno[3,2-d]pyrimidine-2,4(1H,3H)-dione hydrochloride]	6.91	–
COc1cccc2c1[C@H]1CN(CCCCn3c(=O)[nH]c4c(sc5nccnc54)c3=O)C[C@@H]1CO2.Cl.Cl (racemic) [Example 74, 3-[4-((±)-trans-9-Methoxy-1,2,3,3a,4,9b-hexahydro-[1]-benzopyrano[3,4-c]pyrrol-2-yl)butyl]-pyrazino[2',3':4,5]thieno[3,2-d]pyrimidine-2,4(1H,3H)-dione dihydrochloride]	9.03	–
COc1cccc2c1[C@@H]1CCN(CCCCn3c(=O)[nH]c4c(sc5ncccc54)c3=O)C[C@H]1CO2 (relative stereo) [Example 85, 3-[4-((±)-trans-10-Methoxy-1,3,4,4a,5,10b-hexahydro-2H-[1]-benzopyrano[3,4-c]pyrido-3-yl)butyl]-pyrido[3',2':4,5]thieno[3,2-d]pyrimidine-2,4(1H,3H)-dione dihydrochloride]	8.6	–
COc1cccc2c1[C@@H]1CN(CCCCn3c(=O)[nH]c4c(sc5cccnc54)c3=O)C[C@@H]1CO2 [Example 1, 3-[4-((3aR,9bR)-cis-9-Methoxy-1,2,3,3a,4,9b-hexahydro-[1]-benzopyrano[3,4-c]pyrrol-2-yl)butyl]-pyrido[2',3':4,5]thieno[3,2-d]pyrimidine-2,4(1H,3H)-dione hydrochloride]	8.69	–
COc1cccc2c1[C@H]1CN(CCCCn3c(=O)[nH]c4c(sc5cccnc54)c3=O)C[C@H]1CO2 [Example 2, 3-[4-((3aS,9bS)-cis-9-Methoxy-1,2,3,3a,4,9b-hexahydro-[1]-benzopyrano[3,4-c]pyrrol-2-yl)butyl]-pyrido[2',3':4,5]thieno[3,2-d]pyrimidine-2,4(1H,3H)-dione hydrochloride]	7.95	–
COc1cccc2c1[C@@H]1CN(CCCCn3c(=O)[nH]c4c(sc5cccnc54)c3=O)C[C@H]1CO2 [Example 3, 3-[4-((3aS,9bR)-trans-9-Methoxy-1,2,3,3a,4,9b-hexahydro-[1]-benzopyrano[3,4-c]pyrrol-2-yl)butyl]-pyrido[2',3':4,5]thieno[3,2-d]pyrimidine-2,4(1H,3H)-dione hydrochloride]	9.43	–
COc1cccc2c1[C@@H]1CN(CCCCn3c(=O)[nH]c4c(sc5ncc(Cl)nc54)c3=O)C[C@H]1CO2 [Example 13, 3-[4((3aS,9bR)-trans-9-Methoxy-1,2,3,3a,4,9b-hexahydro-[1]-benzopyrano[3,4-c]pyrrol-2-yl)butyl]-8-chloro-pyrazino[2',3':4,5]thieno[3,2-d]pyrimidine-2,4(1H,3H)-dione hydrochloride]	9.91	0.0407
COc1ccc2sc3c(=O)n(CCCCN4C[C@H]5COc6cccc(OC)c6[C@@H]5C4)c(=O)[nH]c3c2n1 [Example 26, 3-[4-((3aS,9bR)-trans-9-Methoxy-1,2,3,3a,4,9b-hexahydro-[1]-benzopyrano[3,4-c]pyrrol-2-yl)butyl]-8-methoxy-pyrido[2',3':4,5]thieno[3,2-d]pyrimidine-2,4(1H,3H)-dione dihydrochloride]	9.15	0.0661
COc1cccc2c1[C@@H]1CN(CCCCn3c(=O)[nH]c4c(sc5ccc(OC(C)C)nc54)c3=O)C[C@H]1CO2 [Example 51, 3-[4-((3aS,9bR)-trans-9-Methoxy-1,2,3,3a,4,9b-hexahydro-[1]-benzopyrano[3,4-c]pyrrol-2-yl)butyl]-8-isopropoxy-pyrido[2',3':4,5]thieno[3,2-d]pyrimidine-2,4(1H,3H)-dione hydrochloride]	–	0.182
COc1cccc2c1[C@@H]1CCN(CCCCn3c(=O)[nH]c4c(sc5cccnc54)c3=O)C[C@H]1CO2 [Example 95, 3-[4-((4aS,10bR)-trans-10-Methoxy-1,3,4,4a,5,10b-hexahydro-2H-[1]-benzopyrano[3,4-c]pyrido-3-yl)butyl]-pyrido[2',3':4,5]thieno[3,2-d]pyrimidine-2,4(1H,3H)-dione dihydrochloride]	8.58	–
COc1cccc2c1[C@@H]1CCN(CCCCn3c(=O)[nH]c4c(sc5ncc(Cl)nc54)c3=O)C[C@H]1CO2 [Example 97, 3-[4-((4aS,10bR)-trans-10-Methoxy-1,3,4,4a,5,10b-hexahydro-2H-[1]-benzopyrano[3,4-c]pyrido-3-yl)butyl]-8-chloro-pyrazino[2',3':4,5]thieno[3,2-d]pyrimidine-2,4(1H,3H)-dione dihydrochloride]	8.6	–
